Reference: patent EP0491041A1, “ANTIVIRAL DRUG” (NIPPON SHINYAKU COMPANY, LIMITED, priority 1989, dated 1991)
≈ marks a conversion by molar mass, not a printed value.

Key:
virus = experiment: Antiviral action test: screening by inhibition of cell degeneration effect (CPE) in virus-infected HeLa cells; format: cell-based; conditions: amount of added drug whereby the CPE became 50%, M.O.I = 0.002, culture for three days
Procedure: HeLa cells were subjected to subcultured by monolayer culture (Eagle's MEM-10% CS) and infected as M.O.I. (multiplicity of infection) = 0.01.
On the first day, HeLa cells were spread in a 75 cm³ flask and cultured on a one-day growth medium (Eagle's MEM-10% CS). On the second day, old medium was removed after confirming the formation of cell sheet, then M.O.I was made 0.01 PFU/cell and 0.5 ml of virus solution was added. The original virus solution was diluted with PBS-3% FCS solution. Operation of the virus inoculation was conducted by tilting for 1 hour at room temperature. After virus was inoculated on the cells, the virus-inoculated solution was removed, washed twice with 10 ml PBS and the residual virus solution was removed. Then 15 ml of maintenance medium (Eagle's MEM-1% CS) was added and cultured at 37°C for 2 days. The cells were observed from time to time and the culture was continued until cell fusion and cell rounding were confirmed. After the culture, medium was recovered which was used as a virus solution and was stored at -20°C until actual use.
The 78 cm³ flask containing HeLa cells which were subjected to a monolayer maintenance subculture was taken out, the old medium was discarded, 2-3 ml of 0.25% trypsine (Difco = 1:250)-0.02% EDTA/PBS(-) solution was added, tilted for a few seconds, the trypsine solution was removed and warmed at 37°C for 5 minutes. Then fresh medium was added, pipetted with a Komagome pipette and the cells were homogeneously dispersed.
Cells were counted using a cytometer, then fresh medium was added, diluted to make the cell concentration 5 x 10⁵ cells/ml, 2 ml of that was added to a laboratory dish of 35 mm diameter and cultured in a CO₂-incubator at 37°C for one day to prepare cell sheet.
The virus solution was diluted by a diluting solution to make diluted solutions of ten-times difference or step. The laboratory dish wherein HeLa cells were cultured on the previous day was taken out from the incubator, old medium was discarded and the cells were washed with each 2 ml of PBS twice. Properly diluted virus solution (0.2 ml) was added to each laboratory dish, subjected to a tilting at room temperature for 60 minutes immediately and virus was inoculated. Then the virus solution was removed, each 2 ml of 0.5% methylcellulose/Eagle's MEM-1% CS was added and cultured in a CO₂ incubator for 4 days.
The cultured laboratory dish was taken out from the CO₂-incubator and methylcellulose medium was removed. Then cells were washed with 2 ml of PDS, 2 ml of methanol was added, allowed to stand for 10 minutes and cells were immobilized and, at the same time, virus was sterilized. Hematoxylin dyeing solution (2 ml) was added to the laboratory dish which was immobilized with methanol, allowed to stand for about 10 minutes, washed with water and air-dried at room temperature. Since the cells destructed with virus were not dyed, plaque area was noted as a void and the plaque numbers were counted whereby virus value (PFU/ml) (Plaque forming units/ml) was measured.
HeLa cells during the subculture were dispersed with trypsine liquid-EDTA solution, 5 x 10⁵ cells/pore were embedded on a plate having 24 pores and cultured overnight at 37°C in a CO₂-incubator to prepare cell sheet.
As mentioned above, old medium was discarded, the cells were washed with PBS, the virus solution was diluted to make M.O.I = 0.002, 0.1 ml of it was added to each pore, subjected to a tilting at room temperature for 60 minutes and virus was inoculated to the cell.
Virus solution was removed from the cells after inoculation of virus, the cells were washed with 2 ml of PBS, each 1 ml of maintenance medium was added to each pore, then each 10 µl of the drug was added and the cells were cultured in a CO₂-incubator. Culture was conducted for three days.
The cells on the plate were observed under an invert microscope. Cell degeneration effect (CPE) was observed as cell fusion and making the cells round. […]

[1] = Acute toxicity test in mice; format: in vivo; conditions: male mice, ddY strain, observation for one week
Procedure: Four male mice (ddY strain; six weeks age) were used for each drug tested.
In the intraperitoneal administration, each drug was suspended in 0.5% CMC-physiological saline solution and 0.1 ml (per 10 g body weight of mouse) of the suspension was intraperitoneally given to mouse. In the case of oral administration, each drug was suspended in 0.5% CMC-physiological saline solution and 0.2 ml (per 10 g body weight of mouse) of the suspension was given orally. Observation was started soon after administration and, after observation for one week, the mice were killed by chloroform and subjected to autopsied. LD₅₀ of each drug tested was given in the following tables wherefrom it is clear that the compounds of the present invention are safe.

Row | Structure (SMILES) | EC50 (50% CPE inhibition) (virus) [µg/mL] | L D ₅₀ ([1]; Intraperitoneal Administration) [mg/kg] | L D ₅₀ ([1]; Oral Administration)
1 | CC(=CCN1C[C@H](O)[C@@H](O)[C@H](O)[C@H]1CO)c1ccc(C)cc1 [Compound No. 104, N-(gamma-Methyl-4-methylcinnamyl)moranoline] | 10 (≈ 32.5 µM) | > 300 | > 5,000 mg/kg
2 | CC(=CCCN1C[C@H](O)[C@@H](O)[C@H](O)[C@H]1CO)c1ccc(Oc2ccccc2)cc1 [Compound No. 115, N-[4-(4-Phenoxyphenyl)-3-pentenyl]moranoline] | 1 (≈ 2.5 µM) | > 300 | > 5,000 mg/kg
3 | OC[C@@H]1[C@@H](O)[C@H](O)[C@@H](O)CN1CCCCOc1ccc(Cl)cc1 [Compound No. 141, N-[4-(4-Chlorophenoxy)butyl]moranoline] | 1 (≈ 2.89 µM) | > 300 | > 5,000 mg/kg
